Results reported in patent US6812256B2, “Polysubstituted indan-1-ol systems for the prophylaxis or treatment of obesity” (Aventis Pharma Deutschland GmbH, priority 2001, dated 2004).

System: female NMRI mice
Assay: Anorectic action: cumulative milk consumption after 24 h removal of feed
Type: in vivo
Settings: 30 mg/kg i.p.
Procedure: The anorectic action was tested on female NMRI mice. After removal of feed for 24 hours, the preparation to be tested was administered intraperitoneally (i.p.) or by gavage (po). The animals were housed singly and, with free access to drinking water, they were offered evaporated milk 30 minutes after administration of the preparation. The consumption of evaporated milk was determined and the general behavior of the animals was monitored every half an hour for 7 hours. The measured milk consumption was compared to that of vehicle-treated control animals.

SMILES: CC1(O)c2ccc(Cl)cc2CC1(F)S(C)(=O)=O (centres unmarked) [Example 1, 5-Chloro-2-fluoro-2-methanesulfonyl-1-methyl-indan-1-ol]
- Reduction in cumulative milk consumption as % of the control (compared with control animals): 25%
- cumulative milk consumption by treated animals (feed removed for 24 h, evaporated milk offered 30 min after administration, monitored for 7 hours): 4/2.88 ml
